Data set [1] concerns H1299 cells. Put plainly: Citrate levels in mitochondrial or cytoplasmic fractions. The settings on record: 4 hours. In kind it is cell-based, human. As to the method:
(§1) Cells, reagents, antibodies, primers. The H1299 cell lines and other cell lines employed in this study were obtained from ATCC or from the tissue culture core facility at LCCC. Cells were grown in Dulbecco's Modified Eagle's Medium (DMEM, 25 mM glucose, with glutamine and pyruvate from Invitrogen; Carlsbad, CA) and supplemented with 10% fetal calf serum (FCS). […] The SLC25A1 specific shRNA vectors were purchased from Sigma. The vector expressing human SLC25A1 untagged or Flag-Myc epitope tagged were from Origene; Rockville, MD (#SC120727 and RC200657, respectively). The anti-SLC25A1 antibody used in immuno-blot was from Santa Cruz Biotech, #sc-86392 employed at 1:1000 dilution. Citrate, lactate, and PFK measurements were performed by using commercially available kits (Biovision (Milpitas, CA)).
Mitochondria isolation and cellular sub-fractionation. Mitochondria and cytoplasmic fractions were prepared as follows. Cells were collected in PBS for 5′, then the pellet was e-suspended in 5 packed cell volumes of mitochondria buffer (250 mM sucrose; 20 mM HEPES (7.4); 10 mM KCl, 1.5 mM MgCl2; 1 mM EDTA; 1 mM EGTA 0.5 M, supplemented with freshly added PMSF and 1 mM […]). Cell lysates were passed through a 25 G needle 10 times, then 5 times through a 27 G needle, followed by incubation on ice for 10-15 minutes. Extracts were centrifuged at 720 G for 5 minutes. The supernatant was centrifuged again at 10000 G and the derived pellet provided the mitochondrial fraction and the supernatant provided the cytoplasmic fraction. To extract the mitochondria for measurement of citrate, the pellet from the previous centrifugation was resuspended in PBS and subjected to 3 cycles of freeze-and-thaw in dry ice immersed in ethanol. The fraction was centrifuged again and re-suspended in PBS. The supernatant (containing cytosolic and membrane fractions) was centrifuged multiple times to eliminate particulate material, and was used as the cytosolic fraction.

In data set [2] the test system is MP1 cells. Description: Tumor xenograft in immuno-compromised mice. Format: in vivo. As to the method:
(§2) Mice and treatments. To produce tumor xenografts, 5×10^6 cells derived from either monolayer cultures or GMSC expanded spheres were dissociated with Accutase, resuspended in PBS, and injected subcutaneously in the flanks of female balb athymic mice. Once detectable tumors started to form, their sizes were measured with a caliper in three dimensions and mice were randomized in the different treatment groups. […] Cisplatin was administered at 26 mg/kg every three or four days. AZD9291 was administered at 25/mg/Kg every 3 days. Serial measurements were made every day after the identification of the initial tumor mass to determine growth curves in vivo. Tumor volume was calculated using the formula for a prolate spheroid: volume=[…], where a is the width and b is the length. All animals were sacrificed when the tumors exceeded 1.5 cm. At the completion of experiments, tumors were excised, weighed, and the statistical significances of differences in tumor volume were assessed. Animals were monitored once a week for the presence of signs of disease, particularly neurological disturbances or weight loss, and they were weighed periodically.
(§3) Statistics. For the animal studies, power calculations for each treatment group were first determined. The number of animals was calculated to detect a 50% difference at alpha=0.05 and power=0.8. Statistical significance was assessed using both unpaired, two-tailed Student t test, and analysis of variance (ANOVA). Significant differences are indicated using the standard […] scale (P<0.05, significant; P<0.01, highly significant; P<0.001, extremely significant).

Data set [3] deals with MP2 cells. Put plainly: Tumor xenograft in immuno-compromised mice. In kind it is in vivo. The settings on record: co-treatment with AZD9291, relative to AZD9291 alone. The method, then:
as §2, §3

Data set [4] concerns MP1 cells. Description: Viability (Crystal Violet) and drug interaction (R index). Format: cell-based, human. As to the method:
(§4) Cellular proliferation and cytotoxicity assays. […] The cells were then washed with 1×PBS and fixed with cold 100% methanol at−20° C. for 20 minutes. Methanol was washed off and the cells were stained with 0.5% crystal violet dissolved in 25% methanol and water at 4° C. for 20 minutes. The staining was washed off using deionized (DI) water and the plate was dried overnight. On the second day, 100 mM sodium citrate in 50% ethanol and 50% water was added to the wells and absorbance at 550 nm was measured and corrected with readings at 405 nm. In other experiments, cell viability was assessed by trypan blue exclusion and visual count of the live cells was performed.
(§5) Statistical methods for drug interactions. […] Sexp/Sobs=1.0 denotes an additive interaction, while >1.0 denotes a synergistic interaction. R index values approaching 2.0 are indicative of strong synergy.

The test system of data set [5] is MP2 cells. The data set is described as above. Format: cell-based, human. The settings on record: CTPI-2 with either cisplatin or AZD9291, 5 days. As to the method:
as §4, §5

A further data set concerns MP3 cells. Described as above. The conditions noted are these: CTPI-2 with either cisplatin or AZD9291, 5 days. In kind it is cell-based, human. As to the method: as §4, §5
The subject of data set [6] is H1299 cells. Put plainly: Glycolysis: ECAR (Seahorse) and lactic acid levels. In kind it is cell-based, human. The method, then: as §1
Seahorse extracellular flux analyzer experiments. Cells derived from spheres or monolayer cultures were dissociated and plated overnight at 12,000 cells/well in DMEM with 10% FBS, 5 mM glucose, 1 mM pyruvate, 2 mM glutamine.
For the mitochondrial stress test, the media was replaced with DMEM without FBS or bicarbonate, containing 5 mM glucose, 1 mM pyruvate, 2 mM glutamine and placed in a CO2 free incubator at 37° C. for 1 hour, and then transferred to the Xf96 extracellular flux analyzer (Agilent; Santa Clara, CA). The program consisted of 3 measurements of OCR/ECAR before the injection of each drug: oligomycin (0.5 μM final concentration), FCCP (2 μM) and rotenone/antimycin (0.5 μM of each). For the glycolysis stress test, cells were plated overnight as above, and the media was washed twice the following day with DMEM without FBS, bicarbonate, glucose, glutamine or pyruvate, and incubated in this media in a CO2 free incubator with/without drug treatments at 37° C. for 4 hours. There were 3 measurements of OCR/ECAR before each injection: glucose (10 mM final concentration), oligomycin (0.5 […] (50 mM). For the analysis of glutamine oxidation, the protocol was the same as the glucose stress test, but with glutamine being the only compound injected (final concentration 4 mM) and OCR/ECAR measured for 60 minutes. When spheres were analyzed, they were dissociated with StemPro® Accutase® (Thermo Scientific; Waltham, MA) and plated under the same conditions as above as for the monolayers the day before the assay (H1299 spheres), or in stem cell media (See Stem Cell Media) with the wells coated in 15 μL of 2% geltrex diluted in DMEM:F12 (Thermo Scientific). The results were normalized to cell number.

For the molecule `O=C(O)c1ccccc1NS(=O)(=O)c1ccc(Cl)c([N+](=O)[O-])c1` [CTPI-2], the cytoplasmic citrate result in the data set with H1299 cells [1] (2D cultures) was “reduction of cytoplasmic citrate”. The mitochondrial citrate entry is “induced accumulation of mitochondrial citrate” in the data set with H1299 cells [1] (2D cultures) and “starkly decreased mitochondrial citrate” in the data set with H1299 cells [1] (spheres). For the same molecule, the cytosolic citrate result in the data set with H1299 cells [1] (spheres) is listed as “without affecting the cytosolic citrate”. Further, the “tumor growth inhibition, single agent” value with MP1 cells [2] (26 mg/Kg alternate days i.p., GMSC-derived versus monolayer-derived tumors) is on record as “more effective in inhibiting the growth of GMSC-derived MP1 tumors”. Further, the body weights result in the data set with MP1 cells [2] (26 mg/Kg at alternate days intra-peritoneally) is “remained unchanged”. Moreover, the tolerability entry in the data set on MP1 cells [2] (26 mg/Kg at alternate days intra-peritoneally, entire treatment period) was “well tolerated”. The “tumor growth inhibition, combination” value in the data set on MP1 cells [2] (CTPI-2 added to the cisplatin regimen) is recorded as “very significant”; in the data set on MP2 cells [3], “prominent enhancement of tumor growth inhibition”. Besides, the “stem cell markers in tumors (immuno-blot)” value in the data set on MP1 cells [2] (GMSC-derived tumors (FIG. 7F)) was “dramatic reduction”. Further, the tumor doubling times result with MP1 cells [2] (relative to mock- and cisplatin-treated groups) is listed as “significantly extended the tumor doubling times”. Further, the “re-sensitization, type of drug interaction (R index)” value with MP1 cells [4] (CTPI-2 with either cisplatin or AZD9291, 5 days) is “starkly synergistic”; in the data set on MP2 cells [5] it was “starkly synergistic”; in the data set with MP3 cells, “starkly synergistic”. Besides, the “sensitivity of a single cisplatin-resistant clone” value in the data set with MP1 cells [4] (co-treatment with cisplatin (FIG. 15D)) is “re-sensitized to cisplatin”. In addition, the lactic acid levels entry in the data set with H1299 cells [6] (monolayer cultures) is “increase in lactic acid levels”. Moreover, the ECAR rates result with H1299 cells [6] (monolayer cultures, after 10 mM glucose injection) was “starkly induced”. Moreover, the “ECAR and lactic acid levels” value in the data set with H1299 cells [6] (spheres) was “remained unchanged or were slightly diminished”.

Source of the values: US12016834B2, “Small molecule inhibitors of SLC25A1” (GEORGETOWN UNIVERSITY, priority 2017, dated 2024).
